The source of these data is ChEMBL document CHEMBL1132827, “New multidrug resistance modulators from Atractylodis Lanceae Rhizoma” (2000).

Experiment [1] relates to KB-C2. Put plainly: Inhibition of growth of KB-C2 cells at the dose of 3 ug/mL of compound in presence of 0.1 ug/mL of colchicine.
Experiment [2] has as its system KB-C2. Briefly: Inhibition of growth of KB-C2 cells at the dose of 1 ug/mL of compound in presence of 0.1 ug/mL of colchicine.
The subject of experiment [3] is KB 3-1. Put plainly: Cytotoxicity (3 ug/mL) was evaluated against KB-3-1 cell lines by observing the effect on growth of cells tested. The format is functional, Homo sapiens.
In experiment [4] the test system is KB 3-1. Briefly: Cytotoxicity (1 ug/mL) was evaluated against KB-3-1 cell lines by observing the effect on growth of cells tested. It is filed as functional, Homo sapiens.
The test system of experiment [5] is KB-C2. Briefly: Inhibition of growth of KB-C2 cells at the dose of 10 ug/mL of compound in presence of 0.1 ug/mL of colchicine.
Experiment [6] concerns KB 3-1. Put plainly: Cytotoxicity (10 ug/mL) was evaluated against KB-3-1 cell lines by observing the effect on growth of cells tested. The format is functional, Homo sapiens.

`CC(C)CC(=O)OC[C@H]1O[C@@](COC(=O)CC(C)C)(O[C@@H]2O[C@H](CO)[C@@H](O)[C@H](O)[C@H]2OC(=O)CC(C)C)[C@@H](OC(=O)CC(C)C)[C@@H]1O.CC[C@@H](C)C(=O)OC[C@@]1(O[C@@H]2O[C@H](CO)[C@@H](O)[C@H](O)[C@H]2OC(=O)CC(C)C)O[C@H](COC(=O)CC(C)C)[C@@H](O)[C@@H]1OC(=O)CC(C)C`: the Inhibition in experiment [1] was 32%; in experiment [2], 23%; in experiment [3], 19%; in experiment [4], 17%; in experiment [5], 33%; in experiment [6], 20%.

Regarding `CC(C)CC(=O)OC[C@H]1O[C@@](COC(=O)C(C)C)(O[C@@H]2O[C@H](CO)[C@@H](O)[C@H](O)[C@H]2OC(=O)CC(C)C)[C@@H](OC(=O)CC(C)C)[C@@H]1OC(=O)CC(C)C.CC(C)CC(=O)OC[C@H]1O[C@@](COC(=O)CC(C)C)(O[C@@H]2O[C@H](CO)[C@@H](O)[C@H](O)[C@H]2OC(=O)CC(C)C)[C@@H](OC(=O)CC(C)C)[C@@H]1OC(=O)C(C)C.CC[C@@H](C)C(=O)OC[C@@]1(O[C@@H]2O[C@H](CO)[C@@H](O)[C@H](O)[C@H]2OC(=O)CC(C)C)O[C@H](COC(=O)CC(C)C)[C@@H](OC(=O)C(C)C)[C@@H]1OC(=O)CC(C)C.CC[C@@H](C)C(=O)O[C@@H]1[C@@H](COC(=O)CC(C)C)O[C@@](COC(=O)C(C)C)(O[C@@H]2O[C@H](CO)[C@@H](O)[C@H](O)[C@H]2OC(=O)CC(C)C)[C@H]1OC(=O)CC(C)C`, the Inhibition amounted to 83% in experiment [1]; 38% in experiment [2]; 13% in experiment [3]; 6% in experiment [4]; 96% in experiment [5]; 94% in experiment [6].

With `CC(C)CC(=O)OC[C@H]1O[C@@](COC(=O)CC(C)C)(O[C@H]2O[C@H](CO)[C@@H](O)[C@H](O)[C@H]2OC(=O)CC(C)C)[C@@H](OC(=O)CC(C)C)[C@@H]1OC(=O)CC(C)C.CC[C@@H](C)C(=O)OC[C@@]1(O[C@H]2O[C@H](CO)[C@@H](O)[C@H](O)[C@H]2OC(=O)CC(C)C)O[C@H](COC(=O)CC(C)C)[C@@H](OC(=O)CC(C)C)[C@@H]1OC(=O)CC(C)C.CC[C@@H](C)C(=O)O[C@@H]1[C@@H](COC(=O)CC(C)C)O[C@@](COC(=O)CC(C)C)(O[C@H]2O[C@H](CO)[C@@H](O)[C@H](O)[C@H]2OC(=O)CC(C)C)[C@H]1OC(=O)CC(C)C`, the Inhibition in experiment [1] is 86%; in experiment [2], 57%; in experiment [3], 14%; in experiment [4], 11%; in experiment [5], 96%; in experiment [6] it was 95%.
